Tests used:
Type in all cases: cell-based
caspase-8 = assay: TRAIL-induced DISC immunoprecipitation from HeLa cells, immunoblot; conditions: 250 ng TRAIL 30 min, relative to SCR
Procedure: To more specifically analyze the DISC associated with TRAIL-bound death receptors, TRAIL-induced DISC was immunoprecipitated from HeLa cells using a biotinylated-antibody specific for TRAIL from HeLa cells that were either left untreated or treated with 250 ng of TRAIL for 30 min. Complexes were separated on 12% SDS-PAGE and subjected to immunoblotting with various antibodies that can specifically react with specific DISC components. Increased recruitment of FADD and pro-caspase-8 was observed after TRAIL treatment. […] However, increased caspase-8 activation (p43/41) was more apparent only upon MADD down-modulation.
Characterization of DISC immunoprecipitated using anti-TRAIL antibody. HeLa (2×10^7) cells transduced for 36 h were treated with 250 ng of TRAIL (Peprotech) for 30 minutes either at 4° C. (untreated) or at 37° C. (treated), collected, washed in cold PBS and lysed in 1 mL lysis buffer for 30 minutes on ice. The lysates were clarified and then normalized for protein concentration. The DISC was then immunoprecipitated overnight using 2 μg/mL of anti-TRAIL-biotinylated antibody. The biotinylated antibody was immunoprecipitated with 35 μL of 50% slurry of streptavidin agarose beads. The beads were washed three times with lysis buffer, boiled in SDS sample buffer and separated on a 12% SDS-PAGE gel for immunoblot analysis.

IG20-SVs = assay: Screening of shRNAs: knock-down of exogenous IG20-SV-YFP expression in 293T cells (flow cytometry)
Procedure: In order to determine which of the IG20-SVs contribute to apoptosis and cell proliferation, siRNA (small inhibitory RNA) approach was used to selectively knockdown IG20-SVs (Table 1). The siRNAs were cloned into the pSUPER vector to allow for expression of shRNAs (small hairpin RNAs). 293T cells were co-transfected with YFPIG20pa, YFP-MADD or YFP-DENN-SV along with different shRNA-expressing pSUPER vectors at ratios of 1:1, 1:3 and 1:7. Knock-down of protein expression was assessed by a reduction in YFP expression using flow cytometry. Several shRNAs were screened. Knock-down of expression of exogenous IG20-SVs were analyzed. 293T cells were plated onto 12-well plates and cotransfected with the indicated IG20-SV-YFP and pSUPER-shRNA constructs. YFP expression was represented as Mean Fluorescence Intensity. Specificity of Mid-shRNA was analyzed. The inability of Mid-shRNA to suppress the expression of mutant-IG20pa, -MADD, and -DENN-SV constructs was analyzed. […] Vector alone or a control shRNA had little or no effect on the expression of IG20-SVs. The sequences provided in Table 1 are exemplary and other sequences that specifically target MADD or any other isoform can be designed by those of skill in the art based on the information given in Table 1 and the disclosure in general.
To further confirm specificity of Mid-shRNA, silent mutations were created in cDNAs encoding IG20-SVs at sites corresponding to the 5th, 7th, 11th and 14th nucleotides of the Mid-shRNA. These mutations neither affected the amino acid sequence nor protein expression. Mutant-IG20-SV constructs were cotransfected with the pSUPER-shRNA and assessed for their expression. […] FIG. 18 is a schematic illustration of the targets of some of the shRNAs used to knock-down specific IG20 splice variants (isoforms). FIG. 11 provides schematic illustration of screening for shRNAs (A) and lentivirus production that contain the shRNA expressing vectors (B). Fluorescence values were measured from cells transfected with the respective shRNAs (FIG. 12).
Screening of shRNAs. IG20-YFP constructs were co-transfected with different pSUPER-shRNA constructs in different ratios (1:1, 1:3, 1:7) into 293T cells using Calcium phosphate. 24 hours post-transduction, cells were trypsinized, collected and washed twice in cold PBS, and analyzed for YFP expression by flow cytometry using a FACS Calibur (Becton Dickinson, N.J.).

MADD = assay: Phosphorylation of endogenous MADD in HeLa cells (anti-phospho antibodies); conditions: LY 10 μM 1 h, IGF-1 150 ng/ml 20 minutes

Molecule: 13L-shRNA: shRNA targeting exon 13L (IG20, MADD), 5′ CGGCGAATCTATGACAATC-3′ (SEQ ID NO: 4)
- Intermediate fragments of caspase-8 (p43/41) in TRAIL immunoprecipitates (caspase-8): increased levels of intermediate fragments of caspase-8 (p43/41)
- Effect on IG20-SVs devoid of the targeted exon (specificity) (IG20-SVs): little or no effect on IG20-SVs devoid of the targeted exon
- Knock-down of expression of exogenous IG20-SVs (YFP expression, Mean Fluorescence Intensity) (IG20-SVs; 293T cells cotransfected with IG20-SV-YFP and pSUPER-shRNA, ratios 1:1, 1:3, 1:7): down-modulated IG20pa/MADD, leaving the expression of IG20-SV2 and DENN-SV unaltered

Molecule: O=c1cc(N2CCOCC2)oc2c(-c3ccccc3)cccc12 [LY]
- Phosphorylation of endogenous MADD (MADD): decreased considerably
